SMILES strings stand for the structures. Where a name gives a salt, the structure may show the parent alone.

human σ1 receptor, sequence (Q99720 whole entry): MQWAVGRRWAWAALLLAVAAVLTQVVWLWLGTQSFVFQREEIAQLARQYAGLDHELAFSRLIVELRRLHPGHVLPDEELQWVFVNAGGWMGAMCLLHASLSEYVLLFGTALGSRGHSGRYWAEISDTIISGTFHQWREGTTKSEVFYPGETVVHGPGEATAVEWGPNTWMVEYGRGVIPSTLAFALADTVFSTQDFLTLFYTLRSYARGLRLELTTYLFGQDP

One experiment concerns the target human σ1 receptor (Homo sapiens, UniProt Q99720). Briefly: biochemical. Type of experiment: binding. Also noted: μ and σ1 dual binding: key to the marks not given beside the values.
Details: not given
Turning to `CC(C)C1OC2(CCN(CCc3ccccn3)CC2)CN(c2ccccc2F)C1=O` (stereo not drawn) [Example 313, 4-(2-fluorophenyl)-2-isopropyl-9-(2-(pyridin-2-yl)ethyl)-1-oxa-4,9-diazaspiro[5.5]undecan-3-one hydrochloride], the Ki was < 500 nM.
On the same count and under the same terms, to `CC1OC2(CCN(CCc3csc(N)n3)CC2)CN(c2ccccc2F)C1=O` (stereo not drawn) [Example 303, 9-(2-(2-aminothiazol-4-yl)ethyl)-4-(2-fluorophenyl)-2-methyl-1-oxa-4,9-diazaspiro[5.5]undecan-3-one] belongs < 500 nM; to `CC1OC2(CCN(CCc3cccc(N)n3)CC2)CN(c2ccccc2)C1=O` (stereo not drawn) [Example 29, 9-(2-(6-aminopyridin-2-yl)ethyl)-2-methyl-4-phenyl-1-oxa-4,9-diazaspiro[5.5]undecan-3-one], < 500 nM.
On to `O=C1COC2(CCN(CCc3ccc(O)cc3)CC2)CN1c1ccccc1` [Example 290, 9-(4-hydroxyphenethyl)-4-phenyl-1-oxa-4,9-diazaspiro[5.5]undecan-3-one], for which the “μ and σ1 dual binding” value was “++”.
Still for that read-out and setting: to `Cl.O=C1COC2(CCN(CCc3ccccc3)C2)CN1c1ccccc1` (stereo not drawn) [Example 149, 2-phenethyl-9-phenyl-6-oxa-2,9-diazaspiro[4.5]decan-8-one hydrochloride] belongs “++”.
Regarding `CC1OC2(CCN(CCc3ccccc3)CC2)CN(CCc2cccnc2)C1=O` (stereo not drawn) [Example 175, 2-methyl-9-phenethyl-4-(2-(pyridin-3-yl)ethyl)-1-oxa-4,9-diazaspiro[5.5]undecan-3-one dihydrochloride], the Ki is < 500 nM.
The same measure, in the same setting: to `CC1COC2(CCN(CCc3ccccc3)CC2)CN1c1ccccc1` (stereo not drawn) [Example 340, 3-methyl-9-phenethyl-4-phenyl-1-oxa-4,9-diazaspiro[5.5]undecane hydrochloride] belongs < 500 nM.
Consider `CC1OC2(CCN(CCc3cncc(C(F)(F)F)c3)CC2)CN(c2ccccc2)C1=O` (stereo not drawn) [Example 112, 2-methyl-4-phenyl-9-(2-(5-(trifluoromethyl)pyridin-3-yl)ethyl)-1-oxa-4,9-diazaspiro[5.5]undecan-3-one hydrochloride], for which the Ki was < 500 nM.
As for `CC1OC2(CCN(CCc3ncccc3F)CC2)CN(c2ccccc2)C1=O` (stereo not drawn) [Example 96, 9-(2-(3-fluoropyridin-2-yl)ethyl)-2-methyl-4-phenyl-1-oxa-4,9-diazaspiro[5.5]undecan-3-one hydrochloride], the Ki is < 500 nM.
For `CC1OC2(CCN(CCc3ccccc3)CC2)CN(c2nn(C)c3ccccc23)C1=O.Cl` (stereo not drawn) [Example 200, 2-methyl-4-(1-methyl-1H-indazol-3-yl)-9-phenethyl-1-oxa-4,9-diazaspiro[5.5]undecan-3-one hydrochloride], the “μ and σ1 dual binding” value is “++”.
Take `Cl.O=C1COC2(CCN(CCc3ccccc3)CC2)CN1CCc1ccccn1` [Example 169, 9-phenethyl-4-(2-(pyridin-2-yl)ethyl)-1-oxa-4,9-diazaspiro[5.5]undecan-3-one hydrochloride]: the “μ and σ1 dual binding” value is given as “++”.
For the molecule `COc1cccc(N2CCOC3(CCN(CCc4ccccc4)CC3)C2)c1.Cl` [Example 333, 4-(3-methoxyphenyl)-9-phenethyl-1-oxa-4,9-diazaspiro[5.5]undecane hydrochloride], the “μ and σ1 dual binding” value is given as “++”.

The same experiment, now with this note: combined class from Ki-σ1 (human σ1 receptor, A1) and Ki-μ (human μ-opioid receptor, A2) radioligand binding.
Consider `O=C1COC2(CCN(CCc3ccccn3)CC2)CN1Cc1ccccn1` [Example 84, 9-(2-(pyridin-2-yl)ethyl)-4-(pyridin-2-ylmethyl)-1-oxa-4,9-diazaspiro[5.5]undecan-3-one], for which the “μ and σ1 dual binding” value is “++”.
On the same count and under the same terms, to `COc1ccccc1N1CC2(CCN(CCc3ccccc3)CC2)OCC1=O` [Example 4, 4-(2-methoxyphenyl)-9-phenethyl-1-oxa-4,9-diazaspiro[5.5]undecan-3-one] belongs “++”.
Take `COc1ccc(CCN2CCC3(CC2)CN(c2ccccc2)C(=O)CO3)cc1` [Example 52, 9-(4-methoxyphenethyl)-4-phenyl-1-oxa-4,9-diazaspiro[5.5]undecan-3-one]: the “μ and σ1 dual binding” value is given as “++”.

Staying with this experiment, now noted: read-out: μ and σ1 dual binding.
In the case of `COCC1OC2(CCN(CCc3ccccc3)CC2)CN(c2ccccc2)C1=O` (stereo not drawn) [Example 11, 2-(methoxymethyl)-9-phenethyl-4-phenyl-1-oxa-4,9-diazaspiro[5.5]undecan-3-one], the Ki is < 100 nM.
On the same count and under the same terms, the result for `CC1OC2(CCN(CCc3ccccc3)CC2)CN(c2ccccc2F)C1=O` (stereo not drawn) [Example 192, 4-(2-fluorophenyl)-2-methyl-9-phenethyl-1-oxa-4,9-diazaspiro[5.5]undecan-3-one hydrochloride] reads < 100 nM; that for `CN(C)C(=O)CCN1CC2(CCN(CCc3ccccc3)CC2)OC2(CC2)C1=O` [Example 182, N,N-dimethyl-3-[13-oxo-8-phenethyl-4-oxa-8,12-diazadispiro[2.1.5.3]tridecan-12-yl]propanamide hydrochloride], > 500 nM; that for `O=C1COC2(CCN(CCc3ccccc3)CC2)CN1Cc1ccc(F)cn1` [Example 176, 4-((5-fluoropyridin-2-yl)methyl)-9-phenethyl-1-oxa-4,9-diazaspiro[5.5]undecan-3-one hydrochloride], < 500 nM.
Regarding `CC1OC2(CCN(CCc3ccc(C(=O)O)cc3)CC2)CN(c2ccccc2)C1=O` (stereo not drawn) [Example 267, 4-(2-(2-methyl-3-oxo-4-phenyl-1-oxa-4,9-diazaspiro[5.5]undecan-9-yl)ethyl)benzoic acid], the Ki is > 500 nM.
For the molecule `CC(C)C1OC2(CCN(CCc3csc(NC(=O)OC(C)(C)C)n3)CC2)CN(c2ccccc2F)C1=O` (stereo not drawn) [Example 117, tert-butyl (4-(2-(4-(2-fluorophenyl)-2-isopropyl-3-oxo-1-oxa-4,9-diazaspiro[5.5]undecan-9-yl)ethyl)thiazol-2-yl)carbamate], the Ki is > 500 nM.
For the molecule `CC1OC2(CCN(CC(=O)N3CCCCC3)CC2)CN(Cc2ccc(C(F)(F)F)cn2)C1=O` (stereo not drawn) [Example 128, 2-methyl-9-(2-oxo-2-(piperidin-1-yl)ethyl)-4-((5-(trifluoromethyl)pyridin-2-yl)methyl)-1-oxa-4,9-diazaspiro[5.5]undecan-3-one hydrochloride], the Ki was > 500 nM.
As to `CC1OC2(CCN(CC3CC3)CC2)CN(c2ccccc2F)C1=O` (stereo not drawn) [Example 82, 9-(cyclopropylmethyl)-4-(2-fluorophenyl)-2-methyl-1-oxa-4,9-diazaspiro[5.5]undecan-3-one hydrochloride], the Ki was > 500 nM.
As for `c1ccc(CN2CCOC3(CCN(CCc4ccccn4)CC3)C2)cc1` [Example 138, 4-benzyl-9-(2-(pyridin-2-yl)ethyl)-1-oxa-4,9-diazaspiro[5.5]undecane hydrochloride], the Ki was < 100 nM.
Turning to `CC(=O)Nc1cccc(CCN2CCC3(CC2)CN(Cc2ccc(C(F)(F)F)cn2)C(=O)CO3)c1` [Example 251, N-(3-(2-(3-oxo-4-((5-(trifluoromethyl)pyridin-2-yl)methyl)-1-oxa-4,9-diazaspiro[5.5]undecan-9-yl)ethyl)phenyl)acetamide hydrochloride], the Ki is < 500 nM.
Same read-out and setting: the result for `COCCCN1CC2(CCN(CCc3ccccc3)CC2)OC2(CC2)C1=O` [Example 180, 12-(3-methoxypropyl)-8-phenethyl-4-oxa-8,12-diazadispiro[2.1.5.3]tridecan-13-one hydrochloride] reads < 500 nM; that for `CC1OC2(CCN(CCc3ccccc3)CC2)CN(c2cccc([N+](=O)[O-])c2)C1=O` (stereo not drawn) [Example 199, 2-methyl-4-(3-nitrophenyl)-9-phenethyl-1-oxa-4,9-diazaspiro[5.5]undecan-3-one], > 500 nM.
